Reference: ChEMBL document CHEMBL5303761, “Data for DCP probe BI-3231” (2023)

Columns and labels:
[1] = biological target: L-type Ca2+ channel (dihydropyridine site), Cav1.2 alpha-1C (Rattus norvegicus, UniProt P22002); assay: CA+/DHPSI/R Eurofins SafetyScreen44 (BI); conditions: rat brain, probe [3H](+)PN200-110, compound concentration 10 uM, read-out: % Ctrl
[2] = biological target: 5-hydroxytryptamine receptor 1B (Homo sapiens) (UniProt P28222); conditions: Compound concentration 10.0 uM
[3] = biological target: T1, 5-hydroxytryptamine receptor 1A (Homo sapiens) (UniProt P08908); assay: 5HT1A/H Eurofins SafetyScreen44 (BI); conditions: Compound concentration 10.0 uM
T1 sequence (whole entry): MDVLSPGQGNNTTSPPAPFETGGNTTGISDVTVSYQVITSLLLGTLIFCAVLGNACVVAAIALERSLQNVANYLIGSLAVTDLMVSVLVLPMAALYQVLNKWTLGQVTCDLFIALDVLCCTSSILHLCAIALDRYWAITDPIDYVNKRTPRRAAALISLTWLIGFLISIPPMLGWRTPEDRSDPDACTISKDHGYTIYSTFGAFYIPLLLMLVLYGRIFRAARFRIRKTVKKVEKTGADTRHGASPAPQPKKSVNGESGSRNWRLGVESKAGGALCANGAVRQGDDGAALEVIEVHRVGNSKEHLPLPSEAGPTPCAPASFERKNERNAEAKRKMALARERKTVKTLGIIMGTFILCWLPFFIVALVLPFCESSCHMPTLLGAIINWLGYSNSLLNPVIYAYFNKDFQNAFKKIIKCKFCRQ

[4] = biological target: Alpha-1B adrenergic receptor (Homo sapiens) (UniProt P35368); conditions: Compound concentration 10.0 uM
Sequence of Alpha-1B adrenergic receptor (Homo sapiens) (P35368 whole entry): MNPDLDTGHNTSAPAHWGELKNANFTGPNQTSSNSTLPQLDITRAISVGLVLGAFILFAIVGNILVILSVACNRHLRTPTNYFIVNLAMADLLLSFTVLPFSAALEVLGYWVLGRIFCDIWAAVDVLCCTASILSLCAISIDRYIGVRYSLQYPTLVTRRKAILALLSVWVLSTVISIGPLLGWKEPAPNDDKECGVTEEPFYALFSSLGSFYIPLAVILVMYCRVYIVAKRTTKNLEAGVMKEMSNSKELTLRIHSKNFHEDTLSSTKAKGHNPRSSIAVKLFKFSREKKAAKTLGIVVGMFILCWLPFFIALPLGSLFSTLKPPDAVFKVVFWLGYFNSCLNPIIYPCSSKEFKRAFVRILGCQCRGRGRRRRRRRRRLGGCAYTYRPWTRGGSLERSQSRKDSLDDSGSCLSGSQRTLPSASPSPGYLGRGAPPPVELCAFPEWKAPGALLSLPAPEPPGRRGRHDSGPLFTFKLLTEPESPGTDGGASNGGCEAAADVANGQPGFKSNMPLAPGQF

[5] = biological target: 5-hydroxytryptamine receptor 2B (Homo sapiens) (UniProt P41595); assay: 5HT2B/H AG Eurofins SafetyScreen44 (BI); conditions: filed as agonist, Compound concentration 10.0 uM
[6] = biological target: D(4) dopamine receptor (Homo sapiens) (UniProt P21917); conditions: Compound concentration 10.0 uM
[7] = biological target: T2, Alpha-1A adrenergic receptor (Homo sapiens) (UniProt P35348); conditions: Compound concentration 10.0 uM
T2 sequence (whole entry): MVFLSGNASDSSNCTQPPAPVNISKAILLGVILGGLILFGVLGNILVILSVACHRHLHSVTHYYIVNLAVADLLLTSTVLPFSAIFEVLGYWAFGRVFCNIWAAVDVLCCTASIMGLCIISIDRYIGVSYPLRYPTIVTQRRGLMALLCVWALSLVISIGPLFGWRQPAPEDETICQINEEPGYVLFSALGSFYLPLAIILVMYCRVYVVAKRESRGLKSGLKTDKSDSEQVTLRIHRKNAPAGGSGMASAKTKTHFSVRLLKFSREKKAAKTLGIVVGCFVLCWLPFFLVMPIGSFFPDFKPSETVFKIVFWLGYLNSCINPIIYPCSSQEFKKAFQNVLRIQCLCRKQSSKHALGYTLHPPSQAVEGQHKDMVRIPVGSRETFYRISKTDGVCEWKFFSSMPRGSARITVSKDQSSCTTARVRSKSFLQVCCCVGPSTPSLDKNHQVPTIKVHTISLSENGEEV

[8] = biological target: Prostaglandin G/H synthase 1 (Homo sapiens) (UniProt P23219); assay: COX-1 Eurofins SafetyScreen44 (BI); conditions: Compound concentration 10.0 uM
[9] = biological target: Muscarinic acetylcholine receptor M4 (Homo sapiens) (UniProt P08173); conditions: Compound concentration 10.0 uM
Sequence of Muscarinic acetylcholine receptor M4 (Homo sapiens) (P08173 whole entry): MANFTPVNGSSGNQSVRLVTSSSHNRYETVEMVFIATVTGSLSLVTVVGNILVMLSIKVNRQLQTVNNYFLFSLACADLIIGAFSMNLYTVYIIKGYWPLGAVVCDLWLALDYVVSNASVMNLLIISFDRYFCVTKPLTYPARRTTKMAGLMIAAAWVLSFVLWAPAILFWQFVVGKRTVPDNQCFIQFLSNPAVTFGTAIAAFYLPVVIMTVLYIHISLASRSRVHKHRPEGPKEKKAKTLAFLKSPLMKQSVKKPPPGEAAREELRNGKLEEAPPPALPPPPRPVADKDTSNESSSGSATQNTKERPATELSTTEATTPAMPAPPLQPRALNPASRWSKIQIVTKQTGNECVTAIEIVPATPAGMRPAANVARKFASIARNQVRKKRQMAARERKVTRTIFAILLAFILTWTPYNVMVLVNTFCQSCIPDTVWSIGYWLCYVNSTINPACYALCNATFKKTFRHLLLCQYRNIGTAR

[10] = biological target: Histamine H4 receptor (Homo sapiens) (UniProt Q9H3N8); conditions: Compound concentration 10.0 uM
Sequence of Histamine H4 receptor (Homo sapiens) (Q9H3N8 whole entry): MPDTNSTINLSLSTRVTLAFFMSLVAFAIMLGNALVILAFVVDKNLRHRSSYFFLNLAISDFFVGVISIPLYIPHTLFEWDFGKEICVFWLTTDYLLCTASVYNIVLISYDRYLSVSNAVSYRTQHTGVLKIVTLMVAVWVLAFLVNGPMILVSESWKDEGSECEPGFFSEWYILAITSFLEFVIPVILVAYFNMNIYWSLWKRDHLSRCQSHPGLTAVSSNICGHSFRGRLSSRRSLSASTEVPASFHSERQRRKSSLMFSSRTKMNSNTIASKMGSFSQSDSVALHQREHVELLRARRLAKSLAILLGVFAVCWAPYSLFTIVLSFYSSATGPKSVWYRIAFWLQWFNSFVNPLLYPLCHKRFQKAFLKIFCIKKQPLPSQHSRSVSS

[11] = biological target: 5-hydroxytryptamine receptor 5A (Homo sapiens) (UniProt P47898); conditions: Compound concentration 10.0 uM
Sequence of 5-hydroxytryptamine receptor 5A (Homo sapiens) (P47898 whole entry): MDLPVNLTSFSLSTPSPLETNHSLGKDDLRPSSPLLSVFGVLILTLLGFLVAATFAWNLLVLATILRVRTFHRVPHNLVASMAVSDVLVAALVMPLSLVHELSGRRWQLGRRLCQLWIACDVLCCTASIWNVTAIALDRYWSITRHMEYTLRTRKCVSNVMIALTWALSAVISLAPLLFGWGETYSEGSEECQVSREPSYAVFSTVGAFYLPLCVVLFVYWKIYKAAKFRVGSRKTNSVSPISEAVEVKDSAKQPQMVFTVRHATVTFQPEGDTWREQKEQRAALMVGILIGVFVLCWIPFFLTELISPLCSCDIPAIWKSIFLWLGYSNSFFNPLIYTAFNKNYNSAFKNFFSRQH

[12] = biological target: Cholecystokinin receptor type A (Homo sapiens) (UniProt P32238); assay: CCKA/H Eurofins SafetyScreen44 (BI); conditions: Compound concentration 10.0 uM
[13] = biological target: Muscarinic acetylcholine receptor M3 (Homo sapiens) (UniProt P20309); conditions: Compound concentration 10.0 uM
[14] = biological target: D(1B) dopamine receptor (Homo sapiens) (UniProt P21918); conditions: Compound concentration 10.0 uM
Sequence of D(1B) dopamine receptor (Homo sapiens) (P21918 whole entry): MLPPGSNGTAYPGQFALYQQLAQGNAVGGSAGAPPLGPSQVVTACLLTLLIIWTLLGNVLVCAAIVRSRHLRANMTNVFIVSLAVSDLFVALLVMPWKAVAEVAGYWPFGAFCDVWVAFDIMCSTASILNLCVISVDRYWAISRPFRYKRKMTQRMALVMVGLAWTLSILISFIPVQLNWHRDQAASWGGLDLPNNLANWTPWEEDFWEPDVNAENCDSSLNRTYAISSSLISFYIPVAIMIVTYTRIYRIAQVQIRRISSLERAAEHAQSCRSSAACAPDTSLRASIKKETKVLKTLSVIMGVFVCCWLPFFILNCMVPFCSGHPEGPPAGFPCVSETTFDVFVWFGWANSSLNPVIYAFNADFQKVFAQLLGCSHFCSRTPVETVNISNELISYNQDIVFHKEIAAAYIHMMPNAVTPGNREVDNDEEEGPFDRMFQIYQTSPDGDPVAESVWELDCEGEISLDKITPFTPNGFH

[15] = biological target: Muscarinic acetylcholine receptor M3 (Homo sapiens) (UniProt P20309); assay: M3/H Eurofins SafetyScreen44 (BI); conditions: Compound concentration 10.0 uM
[16] = biological target: Histamine H2 receptor (Homo sapiens) (UniProt P25021); conditions: Compound concentration 10.0 uM
Sequence of Histamine H2 receptor (Homo sapiens) (P25021 whole entry): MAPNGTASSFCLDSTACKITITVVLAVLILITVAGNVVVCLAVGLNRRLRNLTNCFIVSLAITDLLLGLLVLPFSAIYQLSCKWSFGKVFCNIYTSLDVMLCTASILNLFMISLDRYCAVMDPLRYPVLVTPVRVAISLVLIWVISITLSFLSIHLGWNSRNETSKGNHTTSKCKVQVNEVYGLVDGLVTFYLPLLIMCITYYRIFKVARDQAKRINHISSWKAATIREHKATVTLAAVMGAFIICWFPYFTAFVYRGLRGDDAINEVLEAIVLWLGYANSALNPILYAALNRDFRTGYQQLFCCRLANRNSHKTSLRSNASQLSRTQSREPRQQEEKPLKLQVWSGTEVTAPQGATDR

[17] = biological target: Histamine H1 receptor (Homo sapiens) (UniProt P35367); assay: H1/PYRIL/HS Eurofins SafetyScreen44 (BI); conditions: Compound concentration 10.0 uM
[18] = biological target: Sodium-dependent dopamine transporter (Homo sapiens) (UniProt Q01959); assay: DATRANS/HUM Eurofins SafetyScreen44 (BI); conditions: Compound concentration 10.0 uM
[19] = biological target: Muscarinic acetylcholine receptor M5 (Homo sapiens) (UniProt P08912); conditions: Compound concentration 10.0 uM
Sequence of Muscarinic acetylcholine receptor M5 (Homo sapiens) (P08912 whole entry): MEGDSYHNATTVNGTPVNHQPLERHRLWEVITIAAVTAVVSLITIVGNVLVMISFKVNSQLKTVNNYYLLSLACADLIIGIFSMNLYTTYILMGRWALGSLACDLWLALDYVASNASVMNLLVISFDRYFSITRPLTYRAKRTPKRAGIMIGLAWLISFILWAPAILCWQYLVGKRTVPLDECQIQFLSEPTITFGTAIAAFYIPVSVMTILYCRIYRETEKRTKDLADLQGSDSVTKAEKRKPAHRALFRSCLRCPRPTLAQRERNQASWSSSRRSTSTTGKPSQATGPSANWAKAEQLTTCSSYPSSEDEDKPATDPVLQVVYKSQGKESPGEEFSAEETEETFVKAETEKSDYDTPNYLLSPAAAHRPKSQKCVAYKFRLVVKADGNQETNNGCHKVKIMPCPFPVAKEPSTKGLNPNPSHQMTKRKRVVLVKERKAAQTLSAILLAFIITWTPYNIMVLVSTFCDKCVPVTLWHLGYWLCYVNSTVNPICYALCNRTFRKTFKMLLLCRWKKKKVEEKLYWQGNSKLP

[20] = biological target: D(3) dopamine receptor (Homo sapiens) (UniProt P35462); conditions: Compound concentration 10.0 uM
Sequence of D(3) dopamine receptor (Homo sapiens) (P35462 whole entry): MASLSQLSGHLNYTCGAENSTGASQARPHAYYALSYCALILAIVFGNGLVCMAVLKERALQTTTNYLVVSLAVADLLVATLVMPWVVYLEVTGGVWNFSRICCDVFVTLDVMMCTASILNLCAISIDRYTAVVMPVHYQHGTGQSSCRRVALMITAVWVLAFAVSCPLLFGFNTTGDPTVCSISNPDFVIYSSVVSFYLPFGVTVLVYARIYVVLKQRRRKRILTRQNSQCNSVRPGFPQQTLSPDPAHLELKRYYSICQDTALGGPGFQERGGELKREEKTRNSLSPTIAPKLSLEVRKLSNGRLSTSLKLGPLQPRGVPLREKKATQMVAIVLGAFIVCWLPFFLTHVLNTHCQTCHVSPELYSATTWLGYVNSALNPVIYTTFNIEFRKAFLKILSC

[21] = biological target: Mu-type opioid receptor (Homo sapiens) (UniProt P35372); conditions: Compound concentration 10.0 uM
Sequence of Mu-type opioid receptor (Homo sapiens) (P35372 whole entry): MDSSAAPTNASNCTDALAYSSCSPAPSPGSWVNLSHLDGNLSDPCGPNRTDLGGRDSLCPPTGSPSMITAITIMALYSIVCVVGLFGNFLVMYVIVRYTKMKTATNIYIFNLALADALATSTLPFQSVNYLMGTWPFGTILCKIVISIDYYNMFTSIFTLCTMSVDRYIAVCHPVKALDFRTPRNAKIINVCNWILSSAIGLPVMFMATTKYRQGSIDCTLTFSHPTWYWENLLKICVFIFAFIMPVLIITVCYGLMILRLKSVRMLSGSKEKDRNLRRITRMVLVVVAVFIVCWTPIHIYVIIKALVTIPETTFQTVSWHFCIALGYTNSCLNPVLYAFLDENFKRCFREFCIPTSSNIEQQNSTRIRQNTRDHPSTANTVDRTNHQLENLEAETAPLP

[22] = biological target: T2, Alpha-1A adrenergic receptor (Homo sapiens); assay: ALPHA1AH_ANTAG Eurofins SafetyScreen44 (BI); conditions: filed as antagonist, Compound concentration 10.0 uM
[23] = biological target: Beta-1 adrenergic receptor (Homo sapiens) (UniProt P08588); assay: BETA1/HUM Eurofins SafetyScreen44 (BI); conditions: Compound concentration 10.0 uM
[24] = biological target: Endothelin-1 receptor (Homo sapiens) (UniProt P25101); assay: ETA/H Eurofins SafetyScreen44 (BI); conditions: Compound concentration 10.0 uM
[25] = biological target: Alpha-2C adrenergic receptor (Homo sapiens) (UniProt P18825); conditions: Compound concentration 10.0 uM
Sequence of Alpha-2C adrenergic receptor (Homo sapiens) (P18825 whole entry): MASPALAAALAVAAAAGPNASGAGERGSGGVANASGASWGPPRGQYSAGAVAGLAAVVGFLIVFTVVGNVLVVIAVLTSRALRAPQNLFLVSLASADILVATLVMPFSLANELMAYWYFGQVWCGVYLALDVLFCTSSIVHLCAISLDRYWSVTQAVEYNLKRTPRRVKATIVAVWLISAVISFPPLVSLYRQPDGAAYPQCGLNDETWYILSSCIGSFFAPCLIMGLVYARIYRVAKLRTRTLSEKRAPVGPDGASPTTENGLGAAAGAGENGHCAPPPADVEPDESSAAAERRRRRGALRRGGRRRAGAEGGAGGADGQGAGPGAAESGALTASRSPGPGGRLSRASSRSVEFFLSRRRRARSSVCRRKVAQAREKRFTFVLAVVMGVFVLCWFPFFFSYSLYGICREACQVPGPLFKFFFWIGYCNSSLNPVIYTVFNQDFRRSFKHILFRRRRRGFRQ

[26] = biological target: T3, Alpha-2A adrenergic receptor (Homo sapiens) (UniProt P08913); assay: ALPHA2A/HU Eurofins SafetyScreen44 (BI); conditions: Compound concentration 10.0 uM
T3 sequence (whole entry): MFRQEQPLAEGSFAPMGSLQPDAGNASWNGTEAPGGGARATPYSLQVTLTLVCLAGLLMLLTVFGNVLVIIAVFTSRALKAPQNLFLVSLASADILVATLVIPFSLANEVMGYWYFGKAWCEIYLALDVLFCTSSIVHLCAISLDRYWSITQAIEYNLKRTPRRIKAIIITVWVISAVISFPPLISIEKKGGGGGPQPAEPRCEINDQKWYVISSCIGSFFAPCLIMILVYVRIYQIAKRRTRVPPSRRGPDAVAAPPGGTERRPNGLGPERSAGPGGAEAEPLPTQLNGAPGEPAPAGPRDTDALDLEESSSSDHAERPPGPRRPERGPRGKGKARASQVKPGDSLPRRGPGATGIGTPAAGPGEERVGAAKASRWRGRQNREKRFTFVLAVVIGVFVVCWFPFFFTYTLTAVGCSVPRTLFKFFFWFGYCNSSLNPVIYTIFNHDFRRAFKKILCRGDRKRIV

[27] = biological target: Sodium-dependent serotonin transporter (Homo sapiens) (UniProt P31645); assay: SLC6A4/H Eurofins SafetyScreen44 (BI); conditions: filed as antagonist, Compound concentration 10.0 uM

Sequence of 5-hydroxytryptamine receptor 1B (Homo sapiens) (P28222 whole entry): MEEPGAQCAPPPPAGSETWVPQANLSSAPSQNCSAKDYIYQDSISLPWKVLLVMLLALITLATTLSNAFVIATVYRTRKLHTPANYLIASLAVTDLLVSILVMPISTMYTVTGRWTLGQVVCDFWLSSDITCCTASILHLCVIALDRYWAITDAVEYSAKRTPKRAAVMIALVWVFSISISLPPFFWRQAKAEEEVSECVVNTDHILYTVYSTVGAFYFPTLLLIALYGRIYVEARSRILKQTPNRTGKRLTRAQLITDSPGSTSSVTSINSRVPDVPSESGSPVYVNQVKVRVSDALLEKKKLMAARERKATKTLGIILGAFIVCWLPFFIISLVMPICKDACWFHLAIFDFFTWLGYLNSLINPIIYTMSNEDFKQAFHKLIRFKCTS

In the case of `CCn1c(=O)c(C)cn(Cc2nnc(-c3ccc(F)c(O)c3F)s2)c1=O`, the activity at 10 µM [1] is reported as 84% (not active), the inhibition [2] is reported as 16% and the residual activity [3] is reported as 101%. The inhibition [4] was -10%, the residual activity [5] was 83% and the inhibition [6] was 9.62%. For the same compound, the inhibition [7] was -6.48%, the residual activity [8] was 76% and the inhibition [9] was -2.34%. For the same compound, the inhibition [10] was 3.99%, the inhibition [11] was 4.72% and the residual activity [12] was 78%. For the same compound, the inhibition [13] was -3.96%, the inhibition [14] was 8.17% and the residual activity [15] was 96%. The inhibition [16] was -3.03%, the residual activity [17] was 84% and the residual activity [18] was 82%. It also gave an inhibition [19] of -6.35%, an inhibition [20] of 7.03% and an inhibition [21] of -0.02%. The residual activity [22] was 107%, the residual activity [23] was 95% and the residual activity [24] was 97%. The inhibition [25] was 1.31%, the residual activity [26] was 113% and the residual activity [27] was 106%.
With `CCn1c(=O)c(C)cn(Cc2nnc(-c3ccc(F)c(OC)c3F)s2)c1=O` the activity at 10 µM [1] was 93% (not active), the inhibition [2] was 8.52% and the residual activity [3] was 94%. It also gave an inhibition [4] of -0.13%, a residual activity [5] of 45% and an inhibition [6] of 2.36%. The inhibition [7] was -8.57%, the residual activity [8] was 88% and the inhibition [9] was 0.65%. It also gave an inhibition [10] of -9.96%, an inhibition [11] of 8.13% and a residual activity [12] of 99%. The inhibition [13] was -1.37%, the inhibition [14] was -6.46% and the residual activity [15] was 107%. For the same compound, the inhibition [16] was -1.31%, the residual activity [17] was 100% and the residual activity [18] was 86%. It also gave an inhibition [19] of 0.59%, an inhibition [20] of -2.24% and an inhibition [21] of 12.9%. The residual activity [22] was 88%, the residual activity [23] was 94% and the residual activity [24] was 104%. For the same compound, the inhibition [25] was 2.05%, the residual activity [26] was 87% and the residual activity [27] was 97%.
